# Experimental data published in PMC9687610, “Adenosine-Mimicking Derivatives of 3-Aminopyrazine-2-Carboxamide: Towards Inhibitors of Prolyl-tRNA Synthetase with Antimycobacterial Activity” (Biomolecules, 2022).
# Like-named read-outs stand apart in the source and are kept apart here.
# Columns and labels:
# [1] = tested on: Lichtheimia corymbifera CCM 8077; assay: Antifungal microdilution broth (EUCAST), LC; format: cell-based; conditions: Lichtheimia corymbifera, CCM8077; read after 24 h; read-out: LC MIC
# [2] = tested on: Staphylococcus aureus subsp. aureus methicillin-resistant (MRSA) CCM 4750 (ATCC 43300); assay: Antibacterial microdilution broth (EUCAST), MRSA; format: cell-based; conditions: Staphylococcus aureus; read after 24 h; read-out: MRSA MIC
# [3] = tested on: Mycobacterium tuberculosis H37Ra ITM-M006710 (ATCC 9431); assay: Microplate Alamar Blue Assay (MABA), Mtb H37Ra; format: cell-based; conditions: for MIC: Mycobacterium tuberculosis, 120 h, pH 6.6, MABA, Middlebrook 7H9 broth pH 6.6, resazurin after 120 h, read-out: Mtb H37Ra MIC; for antimycobacterial activity (in words): activity refers to Mtb H37Ra from the primary screening if not otherwise stated
# [4] = tested on: Pseudomonas aeruginosa CCM 3955 (ATCC 27853); assay: Antibacterial microdilution broth (EUCAST), PA; format: cell-based; conditions: Pseudomonas aeruginosa; read after 24 h; read-out: PA MIC
# [5] = tested on: Candida tropicalis CCM 8264 (ATCC 750); assay: Antifungal microdilution broth (EUCAST), CT; format: cell-based; conditions: Candida tropicalis; read after 24 h; read-out: CT MIC
# [6] = tested on: Trichophyton interdigitale CCM 8377 (ATCC 9533); assay: Antifungal microdilution broth (EUCAST), TI; format: cell-based; conditions: Trichophyton interdigitale, 72 h, read-out: TI MIC
# [7] = tested on: Candida parapsilosis CCM 8260 (ATCC 22019); assay: Antifungal microdilution broth (EUCAST), CP; format: cell-based; conditions: Lodderomyces parapsilosis; read after 24 h; read-out: CP MIC
# [8] = tested on: Acinetobacter baumannii DSM 30007 (ATCC 19606); assay: Antibacterial microdilution broth (EUCAST), ACI; format: cell-based; conditions: Acinetobacter baumannii; read after 24 h; read-out: ACI MIC
# [9] = tested on: Mycobacterium smegmatis DSM 43465 (ATCC 607); assay: Microplate Alamar Blue Assay (MABA), M. smegmatis; format: cell-based; conditions: Mycolicibacterium smegmatis; MABA, resazurin after 48 h; read-out: M. smegmatis MIC
# [10] = tested on: Aspergillus fumigatus ATCC 204305; assay: Antifungal microdilution broth (EUCAST), AF; format: cell-based; conditions: Aspergillus fumigatus, ATCC204305; read after 24 h; read-out: AF MIC
# [11] = tested on: Klebsiella pneumoniae CCM 4415 (ATCC 10031); assay: Antibacterial microdilution broth (EUCAST), KP; conditions: read after 24 h
# [12] = tested on: Staphylococcus aureus subsp. aureus CCM 4223 (ATCC 29213); assay: Antibacterial microdilution broth (EUCAST), SA; format: cell-based; conditions: Staphylococcus aureus; read after 24 h; read-out: SA MIC
# [13] = tested on: Aspergillus flavus CCM 8363; assay: Antifungal microdilution broth (EUCAST), AFla; format: cell-based; conditions: Aspergillus flavus, CCM8363; read after 24 h; read-out: AFla MIC
# [14] = tested on: Enterococcus faecalis CCM 4224 (ATCC 29212); assay: Antibacterial microdilution broth (EUCAST), EF; format: cell-based; conditions: Enterococcus faecalis; read after 24 h; read-out: EF MIC
# [15] = tested on: Escherichia coli CCM 3954 (ATCC 25922); assay: Antibacterial microdilution broth (EUCAST), EC; format: cell-based; conditions: Escherichia coli; read after 24 h; read-out: EC MIC
# [16] = tested on: HepG2 human hepatocellular carcinoma cells; assay: In vitro HepG2 cytotoxicity (CellTiter 96); conditions: * limit = highest evaluated concentration (precipitation in medium), ** over the 1000 µM limit
# [17] = tested on: Candida albicans CCM 8320 (ATCC 24433); assay: Antifungal microdilution broth (EUCAST), CA; format: cell-based; conditions: Candida albicans; read after 24 h; read-out: CA MIC
# [18] = tested on: Candida krusei CCM 8271 (ATCC 6258); assay: Antifungal microdilution broth (EUCAST), CK; format: cell-based; conditions: Pichia kudriavzevii; read after 24 h; read-out: CK MIC
# [19] = tested on: M. aurum DSM 43999 (ATCC 23366); assay: Microplate Alamar Blue Assay (MABA), M. aurum; format: cell-based; conditions: Mycolicibacterium aurum; MABA, resazurin after 72 h; read-out: M. aurum MIC
# [20] = tested on: Staphylococcus epidermidis CCM 4418 (ATCC 12228); assay: Antibacterial microdilution broth (EUCAST), SE; format: cell-based; conditions: read after 24 h, read-out: SE MIC
# [21] = Homo sapiens, HepG2, 24 h, read-out: HepG2 IC50, 24 h incubation
Compound,MIC [1] [µM],MIC [2] [µM],MIC [3] [µg/mL],MIC [4] [µM],MIC [5] [µM],melting point [°C],MIC [6] [µM],MIC [7] [µM],MIC [8] [µM],MIC [9] [µg/mL],MIC [10] [µM],KP MIC [11] [µM],MIC [12] [µM],MIC [13] [µM],MIC [14] [µM],MIC [15] [µM],"IC50 [16, 21] [µM]",MIC [17] [µM],MIC [18] [µM],MIC [19] [µg/mL],also measured
NC(=O)c1nccnc1NC(=O)c1ccccc1C(F)(F)F [Compound 20],> 500,> 500,500,> 500,> 500,201.5 to 202.4,> 500,> 500,> 500,≥ 500,> 500,> 500,> 500,> 500,> 500,> 500,> 250,> 500,> 500,≥ 500,MIC [20]: > 500 µM
"NC(=O)c1nccnc1NC(=O)c1ccc([N+](=O)[O-])cc1 [Compound 21, 3-(4-nitrobenzamido)pyrazine-2-carboxamide]",> 125,> 125,250,> 125,> 125,> 300,> 125,> 125,> 125,250,> 125,> 125,> 125,> 125,> 125,> 125,> 100,> 125,> 125,≥ 500,MIC [20]: > 125 µM
NC(=O)c1nccnc1NC(=O)Cc1ccc(F)cc1 [Compound 25],> 250,> 250,≥ 250,> 250,> 250,225.3 to 227.3,> 250,> 250,> 250,≥ 250,> 250,> 250,> 250,> 250,> 250,> 250,> 100,> 250,> 250,≥ 250,antimycobacterial activity (in words) [3]: inactive; MIC [20]: > 250 µM
NC(=O)c1nccnc1NC(=O)CCc1ccccc1 [Compound 26],> 500,> 500,125,> 500,> 500,160.3 to 161.5,> 500,> 500,> 500,≥ 500,> 500,> 500,> 500,> 500,> 500,> 500,> 500,> 500,> 500,≥ 500,antimycobacterial activity (in words) [3]: inactive; MIC [20]: > 500 µM
NC(=O)c1nccnc1NC(=O)C1CCCCC1 [Compound 27],> 500,> 500,125,> 500,> 500,105.5 to 107,> 500,> 500,> 500,250,> 500,> 500,> 500,> 500,> 500,> 500,> 1000,> 500,> 500,≥ 500,MIC [20]: > 500 µM
CCCC(=O)Nc1nccnc1C(N)=O [Compound 29],> 500,> 500,≥ 500,> 500,> 500,158.7 to 159.5,> 500,> 500,> 500,≥ 500,> 500,> 500,> 500,> 500,> 500,> 500,> 1000,> 500,> 500,≥ 500,MIC [20]: > 500 µM
CCCCCC(=O)Nc1nccnc1C(N)=O [Compound 30],> 500,> 500,≥ 500,> 500,> 500,138.4 to 139,> 500,> 500,> 500,≥ 500,> 500,> 500,> 500,> 500,> 500,> 500,560,> 500,> 500,≥ 250,MIC [20]: > 500 µM
CCCCCCC(=O)Nc1nccnc1C(N)=O [Compound 31],> 125,> 125,≥ 500,> 125,> 125,131.5 to 132.1,> 125,> 125,> 125,≥ 500,> 125,> 125,> 125,> 125,> 125,> 125,> 250,> 125,> 125,≥ 500,MIC [20]: > 125 µM
CCCCCCCC(=O)Nc1nccnc1C(N)=O [Compound 32],> 250,> 250,250,> 250,> 250,127.9 to 129.3,> 250,> 250,> 250,250,> 250,> 250,> 250,> 250,> 250,> 250,> 1000,> 250,> 250,125,MIC [20]: > 250 µM
CNC(=O)c1nccnc1NC(=O)c1ccc(C)cc1 [Compound 33],> 500,> 500,250,> 500,> 500,178.4 to 179.5,> 500,> 500,> 500,≥ 500,> 500,> 500,> 500,> 500,> 500,> 500,765,> 500,> 500,125,"IC50 ([16]; read-out: HepG2 IC50, 24 h incubation): 764 µM; MIC [20]: > 500 µM"
CNC(=O)c1nccnc1NC(=O)c1ccc(Cl)cc1 [Compound 34],> 125,> 125,≥ 500,> 125,> 125,204.2 to 205.1,> 125,> 125,> 125,≥ 500,> 125,> 125,> 125,> 125,> 125,> 125,> 100,> 125,> 125,≥ 500,MIC [20]: > 125 µM
